Data published in patent US10421765B2, “Tetrahydropyrido[4,3-d]pyrimidine inhibitors of ATR kinase” (Board of Regents, The University of Texas System, priority 2017, dated 2019).
Like-named read-outs stand apart in the source and are kept apart here.

Tests used:
[1] = test system: ATR-driven phosphorylation of Chk1 kinase at Serine 345 in HT-29 colorectal adenocarcinoma cells; assay: pCHK1 cellular assay (CHK1 p-Ser345 AlphaScreen SureFire); type: cell-based; conditions: 4-nitroquinoline N-oxide 12 uM, read-out: Cell IC50 (pCHK1 IC50 values)
Experimental: Inhibitors of ATR kinase are effective at inhibiting the ATR-driven phosphorylation of the downstream target Chk1 kinase at Serine 345, following the addition of 4-nitroquinoline N-oxide, a chemical used to induce DNA damage. Cellular IC50 for the inhibitors of ATR described herein were measured in HT-29 colorectal adenocarcinoma cells. HT-29 cells were routinely maintained in McCoy's 5A media (ATCC Catalog #30-2007) supplemented with 10% fetal bovine serum (Sigma Catalog #F2442) and 1× Penicillin-Streptomycin (Gibco Catalog #15140-122) using a humidified incubator (37° C., 5% CO2, and ambient O2).
In preparation for the CHK1 (p-Ser345) ALPHASCREEN® SUREFIRE® assay, cells were harvested and resuspended in McCoy's 5A media supplemented with 10% fetal bovine serum and 1× Penicillin-Streptomycin. Cells were seeded onto a 384-well black CELLSTAR® Tissue Culture Plate (VWR Catalog #89085-314) at a density of 13,000 cells/well in a volume of 40 uL. The microplate was incubated overnight (approximately 20 hours) at 37° C. with 5% CO2 and ambient O2. Stock solutions of the test compounds were prepared in 100% DMSO (Sigma, Catalog #D2650) and serially diluted 1:3 using 100% DMSO. Compounds were additionally diluted 1:33 in culture medium, and 10 ul/well were transferred to the tissue culture plate. Following the compound addition the microplate was incubated at 37° C. for 90 minutes. 10 uL of 4-nitroquinoline N-oxide (Sigma Aldrich Catalog #N8141-1G) diluted in media (final concentration 12 uM) were added to the tissue culture plate followed by a 120 minute incubation at 37° C. The cells were then washed with PBS and lysed using 10 uL/well SUREFIRE® Kit lysis buffer diluted to 1× in water (PerkinElmer Catalog #TGRCHK1S50K), with mixing on an orbital shaker at 500 rpm for 20 min at RT. Lysates were frozen at −20° C. overnight.
4 uL/well of lysate was then transferred from the tissue culture plate to a 384-well, white, low volume, PROXIPLATE™ (PerkinElmer Catalog #600828). 5 uL/well of the acceptor bead solution, prepared by diluting SUREFIRE® Kit activation buffer (PerkinElmer Catalog #TGRCHK1S50K) and ALPHASCREEN® Protein A acceptor beads (PerkinElmer Catalog #6760617R) in SUREFIRE® Kit reaction buffer (PerkinElmer Catalog #TGRCHK1S50K), were added to the lysates under subdued light and incubated at room temperature for 120 min. 2 uL/well of the donor bead solution, prepared by diluting ALPHASCREEN® Streptavidin donor beads (PerkinElmer Catalog #6760617R) in SUREFIRE® Kit dilution buffer (PerkinElmer Catalog #TGRCHK1S50K), were added under subdued light and incubated at room temperature for an addition 120 minutes. The pCHK1 ALPHASCREEN® signal was measured using an ENVISION® plate reader (PerkinElmer). IC50 values were calculated using a four-parameter logistic curve fit using Genedata Screener software. Percent of control for each compound concentration was calculated by the following formula: 100*(Compound−Min)/(Max−Min) where “Max” is the high control, DMSO, and “Min” is the low control, 5 uM ATR inhibitor.

ATR/ATRIP complex = ATR/ATRIP complex (Homo sapiens (Human), UniProt Q13535); assay: ATR/ATRIP enzymatic assay (Caliper-based); type: biochemical; conditions: FAM-labeled RAD17 peptide, ATP
Experimental: Human full-length FLAG-TEV-ATR and His6-ATRIP were co-expressed in HEK293 cells. The cell pellet (20 g) was harvested and lysed in 100 mL of lysis buffer (20 mM Tris-HCl pH 7.5 at room temperature, 137 mM NaCl, 10% glycerol, 1 mM DTT, 1% (v/v) Tween-20, 0.1% (v/v) NP-40, complete protease inhibitor cocktail tablets, phosphatase inhibitor cocktail tablets, 2 mM MgCl2, 0.2 mM EDTA, and 1 mM ATP). After sonication and centrifugation, the supernatant was incubated at 4° C. for 3 hours with 1 mL of anti-FLAG resin (Sigma catalog #A2220) that had been pre-equilibrated in buffer A (20 mM Tris-HCl pH 7.5 at room temperature, 137 mM NaCl, 10% glycerol, 1 mM DTT, 2 mM MgCl2, and 0.2 mM EDTA). The sample was loaded into a column, and then washed with buffer A three times. Protein was subsequently eluted with 2 ml of buffer B (buffer A+200 μg/ml 3×FLAG peptide).
The ability of new chemical matter to inhibit the ATR catalytic activity in this ATR/ATRIP complex was assessed using a Caliper-based assay. A 2x enzyme solution (i.e., 4 nM enzyme) was prepared using 1× Kinase Reaction Buffer (25 mM HEPES pH 8, 0.0055% Brij-35, 10 mM MnCl2, and 1 mM DTT). A 2x peptide solution was then prepared consisting of 10 uM FAM-labeled RAD17 peptide (GL Biochem, catalog #524315) in 1× Kinase Reaction Buffer supplemented with 2 μM ATP. 10 μL of the 2× enzyme solution was transferred to an assay plate containing 60 nL of test compound (from a 3× serial dilution) in 100% DMSO. Following a 30 minute incubation at 28° C., 10 μL of the 2× peptide solution was then transferred to the same assay plate. The reaction was allowed to incubate at 28° C. for 6 hours. After adding […] of stop buffer (100 mM HEPES pH 7.5, 0.015% Brij-35, 0.2% Coating-3 Reagent (PerkinElmer, catalog #PN760050), and 50 mM EDTA), data were collected on a Caliper instrument. Conversion values were converted to inhibition values via the following equation: % inhibition=(max−conversion)/(max−min)*100, whereby “max” corresponds to the DMSO control and “min” corresponds to the low control. IC50 values were calculated using the following equation in XLFit: Y=Bottom+(Top−Bottom)/1+(IC50/X)^HillSlope).

[2] = read-out: ATR/ATRIP Enzyme IC50
[3] = Homo sapiens, HT-29, HT-29 cells

Chain of ATR/ATRIP complex (Q13535 whole entry): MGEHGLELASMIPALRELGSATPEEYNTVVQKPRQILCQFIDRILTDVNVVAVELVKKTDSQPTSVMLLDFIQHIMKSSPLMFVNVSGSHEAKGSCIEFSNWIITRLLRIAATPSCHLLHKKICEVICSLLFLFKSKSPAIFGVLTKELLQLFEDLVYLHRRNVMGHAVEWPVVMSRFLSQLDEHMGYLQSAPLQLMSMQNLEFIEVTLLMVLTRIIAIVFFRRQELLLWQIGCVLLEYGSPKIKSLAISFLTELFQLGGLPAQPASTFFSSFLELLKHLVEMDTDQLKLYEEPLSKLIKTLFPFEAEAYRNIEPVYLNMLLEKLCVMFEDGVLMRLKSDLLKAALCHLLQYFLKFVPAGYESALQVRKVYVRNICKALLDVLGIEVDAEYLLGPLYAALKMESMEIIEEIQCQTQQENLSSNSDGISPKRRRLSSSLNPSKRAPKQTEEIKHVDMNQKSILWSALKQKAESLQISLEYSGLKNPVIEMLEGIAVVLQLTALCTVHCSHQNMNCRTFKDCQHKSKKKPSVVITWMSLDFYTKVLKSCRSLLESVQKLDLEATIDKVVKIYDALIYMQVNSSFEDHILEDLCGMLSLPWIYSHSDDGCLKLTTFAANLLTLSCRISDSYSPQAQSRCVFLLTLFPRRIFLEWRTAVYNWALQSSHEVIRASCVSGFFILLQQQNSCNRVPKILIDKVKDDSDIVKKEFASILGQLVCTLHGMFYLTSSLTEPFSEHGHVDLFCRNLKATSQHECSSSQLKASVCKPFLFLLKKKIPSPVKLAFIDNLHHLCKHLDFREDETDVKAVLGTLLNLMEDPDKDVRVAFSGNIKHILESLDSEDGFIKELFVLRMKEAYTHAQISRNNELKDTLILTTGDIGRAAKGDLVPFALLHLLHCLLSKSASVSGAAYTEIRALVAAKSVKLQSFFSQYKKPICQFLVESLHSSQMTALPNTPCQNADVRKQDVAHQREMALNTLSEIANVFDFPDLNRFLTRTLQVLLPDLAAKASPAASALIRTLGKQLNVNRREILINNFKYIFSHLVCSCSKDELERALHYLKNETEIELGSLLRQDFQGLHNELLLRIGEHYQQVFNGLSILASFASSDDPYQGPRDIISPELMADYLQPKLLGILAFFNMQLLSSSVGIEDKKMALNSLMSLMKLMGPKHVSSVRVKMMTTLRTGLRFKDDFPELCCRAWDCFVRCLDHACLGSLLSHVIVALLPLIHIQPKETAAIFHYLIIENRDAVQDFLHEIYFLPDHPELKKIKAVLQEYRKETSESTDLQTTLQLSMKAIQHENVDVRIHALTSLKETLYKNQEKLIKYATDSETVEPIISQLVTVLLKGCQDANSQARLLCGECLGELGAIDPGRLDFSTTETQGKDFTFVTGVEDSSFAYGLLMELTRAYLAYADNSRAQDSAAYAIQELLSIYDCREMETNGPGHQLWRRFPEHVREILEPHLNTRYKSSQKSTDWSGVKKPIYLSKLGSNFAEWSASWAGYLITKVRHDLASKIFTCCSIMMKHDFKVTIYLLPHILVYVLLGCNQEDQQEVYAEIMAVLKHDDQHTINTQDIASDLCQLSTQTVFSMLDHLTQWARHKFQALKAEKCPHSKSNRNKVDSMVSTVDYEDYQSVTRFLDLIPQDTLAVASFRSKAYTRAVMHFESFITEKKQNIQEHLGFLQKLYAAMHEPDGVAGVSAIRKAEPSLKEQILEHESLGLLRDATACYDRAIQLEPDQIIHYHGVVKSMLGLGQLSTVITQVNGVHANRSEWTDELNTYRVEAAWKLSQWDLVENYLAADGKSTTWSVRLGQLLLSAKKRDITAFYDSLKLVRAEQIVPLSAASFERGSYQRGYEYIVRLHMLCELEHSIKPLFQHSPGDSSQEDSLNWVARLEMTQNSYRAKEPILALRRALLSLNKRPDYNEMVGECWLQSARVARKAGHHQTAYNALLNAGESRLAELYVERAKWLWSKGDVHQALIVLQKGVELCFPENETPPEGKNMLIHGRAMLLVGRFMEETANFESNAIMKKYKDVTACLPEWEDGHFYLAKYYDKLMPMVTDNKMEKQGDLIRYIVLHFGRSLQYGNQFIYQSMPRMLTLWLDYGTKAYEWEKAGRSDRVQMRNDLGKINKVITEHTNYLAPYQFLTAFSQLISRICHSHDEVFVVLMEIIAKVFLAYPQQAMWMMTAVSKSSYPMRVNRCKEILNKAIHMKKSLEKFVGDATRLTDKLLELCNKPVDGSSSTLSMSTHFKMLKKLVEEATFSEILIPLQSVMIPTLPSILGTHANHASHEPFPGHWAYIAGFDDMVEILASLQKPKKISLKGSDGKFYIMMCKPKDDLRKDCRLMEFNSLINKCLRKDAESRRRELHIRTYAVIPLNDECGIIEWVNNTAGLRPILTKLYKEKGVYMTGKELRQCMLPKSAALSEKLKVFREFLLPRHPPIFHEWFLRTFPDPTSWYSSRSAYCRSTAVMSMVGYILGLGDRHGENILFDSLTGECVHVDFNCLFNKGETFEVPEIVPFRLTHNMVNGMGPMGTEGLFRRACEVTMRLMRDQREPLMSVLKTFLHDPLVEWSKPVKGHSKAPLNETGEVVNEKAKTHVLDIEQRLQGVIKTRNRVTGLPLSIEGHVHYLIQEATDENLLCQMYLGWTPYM
Chain of ATR/ATRIP complex (Q8WXE1 whole entry partner): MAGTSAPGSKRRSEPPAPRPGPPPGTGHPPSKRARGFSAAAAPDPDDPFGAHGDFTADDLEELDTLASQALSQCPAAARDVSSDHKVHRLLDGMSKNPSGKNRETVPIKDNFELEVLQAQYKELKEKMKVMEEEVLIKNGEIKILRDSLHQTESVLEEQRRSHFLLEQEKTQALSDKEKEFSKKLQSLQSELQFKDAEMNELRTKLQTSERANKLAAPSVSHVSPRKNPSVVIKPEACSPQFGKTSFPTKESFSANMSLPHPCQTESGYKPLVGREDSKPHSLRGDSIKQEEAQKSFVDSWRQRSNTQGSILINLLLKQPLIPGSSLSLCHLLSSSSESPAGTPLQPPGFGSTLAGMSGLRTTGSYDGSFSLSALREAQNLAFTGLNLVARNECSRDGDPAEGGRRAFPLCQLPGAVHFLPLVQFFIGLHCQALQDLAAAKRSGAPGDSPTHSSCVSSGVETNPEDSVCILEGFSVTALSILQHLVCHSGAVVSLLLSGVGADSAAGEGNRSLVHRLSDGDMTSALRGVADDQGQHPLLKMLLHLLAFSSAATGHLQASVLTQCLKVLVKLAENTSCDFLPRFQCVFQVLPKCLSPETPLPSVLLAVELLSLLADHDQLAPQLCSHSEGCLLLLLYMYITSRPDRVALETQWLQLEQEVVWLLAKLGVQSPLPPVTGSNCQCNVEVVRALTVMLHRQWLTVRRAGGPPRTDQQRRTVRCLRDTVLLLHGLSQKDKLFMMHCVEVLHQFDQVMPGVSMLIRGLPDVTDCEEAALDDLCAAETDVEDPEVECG

Row | SMILES | IC50 ([1]; HT-29 cells) [nM] | IC50 (ATR/ATRIP complex; [2]) [nM] | IC50 [1, 3] [nM] | IC50 (ATR/ATRIP complex; estimated range, read-out: ATR/ATRIP Enzyme IC50 (estimated class)) [nM]
1 | C[C@@H]1Cc2ncnc(C3C[C@H]4CC[C@@H](C3)N4S(C)(=O)=O)c2CN1c1cc(Cl)nc2[nH]ccc12 (single isomer, unassigned) [Example 11a] | 28 | 555 | – | –
2 | C[C@@H]1Cc2ncnc([C@H]3CCN(S(C)(=O)=O)C3)c2CN1c1ccnc2[nH]ccc12 [Example 57b, (R)-7-methyl-4-((S)-1-(methylsulfonyl)pyrrolidin-3-yl)-6-(1H-pyrrolo[2,3b]-pyridin-4-yl)-5,6,7,8-tetrahydropyrido[4,3-d]pyrimidine] | 394 | 1470 | – | –
3 | CNC(=O)[C@@H]1CCCN(c2ncnc3c2CN(c2cc(Cl)nc4[nH]ccc24)[C@H](C)C3)C1 [Example 44, (R)-1-((R)-6-(6-Chloro-1H-pyrrolo[2,3-b]pyridin-4-yl)-7-methyl-5,6,7,8-tetrahydropyrido[4,3-d]pyrimidin-4-yl)-N-methylpiperidine-3-carboxamide] | – | 1040 | 92 | –
4 | C[C@@H]1Cc2ncnc(N3CCC(S(C)(=O)=O)CC3)c2CN1c1ccnc2[nH]ccc12 [Example 8, (R)-7-Methyl-4-(4-(methylsulfonyl)piperidin-1-yl)-6-(1H-pyrrolo[2,3-b]pyridin-4-yl)-5,6,7,8-tetrahydropyrido[4,3-d]pyrimidine bis(trifluoroacetate)] | – | 979 | 127 | –
5 | CC1Cc2ncnc(-c3ccc(S(C)(=O)=O)cc3)c2CN1c1ccnc2[nH]ccc12 (stereo not shown) [Example 3, 7-Methyl-4-(4-(methylsulfonyl)phenyl)-6-(1H-pyrrolo[2,3-b]pyridin-4-yl)-5,6,7,8-tetrahydropyrido[4,3-d]pyrimidine bis(trifluoroacetate)] | – | 1970 | 183 | –
6 | C[C@@H]1Cc2ncnc(N3CCC4(CC3)NC(=O)NC4=O)c2CN1c1cc(Cl)nc2[nH]ccc12 [Example 61, (R)-8-(6-(6-chloro-1H-pyrrolo[2,3-b]pyridin-4-yl)-7-methyl-5,6,7,8-tetrahydropyrido[4,3-d]pyrimidin-4-yl)-1,3,8-triazaspiro[4.5]decane-2,4-dione] | – | 514 | 570 | –
7 | C[C@@H]1Cc2ncnc(N3CCS(=O)(=O)CC3)c2CN1c1cc(Cl)nc2[nH]ccc12 [Example 22, 4-[(7R)-6-{6-chloro-1H-pyrrolo[2,3-b]pyridin-4-yl}-7-methyl-5H,6H,7H,8H-pyrido[4,3-d]pyrimidin-4-yl]-1λ^6-thiomorpholine-1,1-dione] | – | – | 554 | 1000 to 10000
8 | C[C@@H]1Cc2ncnc(N3CCC[C@@H](C(C)(C)O)C3)c2CN1c1cc(Cl)nc2[nH]ccc12 [Example 70, 2-((R)-1-((R)-6-(6-chloro-1H-pyrrolo[2,3-b]-pyridin-4-yl)-7-methyl-5,6,7,8-tetrahydropyrido-[4,3-d]pyrimidin-4-yl)-piperidin-3-yl)propan-2-ol] | – | 87 | 10 | –
9 | C[C@@H]1Cc2ncnc(N3CC(NS(=O)(=O)C4CC4)C3)c2CN1c1ccnc2[nH]ccc12 [Example 85, (R)-N-(1-(7-methyl-6-(1H-pyrrolo[2,3-b]-pyridin-4-yl)-5,6,7,8-tetrahydropyrido[4,3-d]-pyrimidin-4-yl)azetidin-3-yl)cyclopropane-sulfonamide] | – | 113 | 83 | –
10 | CNC(=O)C1CCN(c2ncnc3c2CN(c2cc(Cl)nc4[nH]ccc24)[C@H](C)C3)CC1 [Example 76, (R)-1-(6-(6-chloro-1H-pyrrolo[2,3-b]pyridin-4-yl)-7-methyl-5,6,7,8-tetrahydropyrido[4,3-d]-pyrimidin-4-yl)-N-methylpiperidine-4-carboxamide] | – | 708 | 61 | –
11 | C[C@@H]1Cc2ncnc(C3=CCC(NS(C)(=O)=O)CC3)c2CN1c1cc(Cl)nc2[nH]ccc12 (stereo partly drawn) [Example 73, N-(4-((R)-6-(6-chloro-1H-pyrrolo[2,3-b]pyridin-4-yl)-7-methyl-5,6,7,8-tetrahydropyrido[4,3-d]-pyrimidin-4-yl)cyclohex-3-en-1-yl)methane-sulfonamide] | – | 111 | 18 | –
